{"source": "patent US20200375954A1", "about": "“THERAPEUTIC AGENT FOR FOOD COMPETENCE DISORDER IN STOMACH” (ZERIA PHARMACEUTICAL CO., LTD., priority 2002, published 2020)", "key": {"[1]": {"tested_on": "adult male mongrel dog (gastric fundus)", "experiment": "Barostat test in dog", "assay_type": "in vivo", "settings": "for Volume change of Air-bag / Activity of alleviating impaired gastric accommodation (in words): i.v.; for Volume change of Air-bag: 5 minutes after liquid test meal, mean air-bag volume after vs before agent, mean ± standard error; for Volume increase of air-bag, ΔmL: method of Example 1, N=1; for Activity of alleviating impaired gastric accommodation (in words): barostat test in dog", "method": "A gastric fistula (KN-365, D-14-C from Natsume Seisakusyo Co., Ltd.) was installed permanently in the center of stomach anterior wall of an adult male mongrel dog, and was used for air-bag insertion.\nThe fistula-installed dog was abstained from food for not shorter than 18 hours, followed by opening the gastric fistula and washing inside stomach by infusion of saline into stomach, before starting experiment. This procedure was repeated 2 to 3 times as appropriate. The air-bag (maximal volume: about 750 mL) fabricated using a commercially available polyethylene bag was inserted into stomach through gastric fistula and fixed using a silicone plug, followed by connection to barostat instrument and starting measurement under nonrestraint condition. Volume change of the air-bag was recorded on both a recorder and a computer.\nAfter insertion of the air-bag into stomach, the bag was once infused with air up to 500 mL, followed by immediate and complete air evacuation, and starting recording by adjusting initial inner pressure of the air-bag to be 6±2 mmHg. After stabilization for not shorter than 15 minutes, 50 mL of a liquid test meal (12.5 kcal, Besvion^RT from Fujisawa Pharmaceutical Co., Ltd.) dissolved in warm water (30 to 40° C.) was […] administered into stomach. Five minutes after administration of the test meal, a solvent and test agents were administrated intravenously. Mean air-bag volumes (mL) for each 5 minutes before administration of the test meal, along with before and after administration of the test agents were calculated using a computer analyzing system to compare differences in mean air-bag volumes (mL) before and after administration of the test agents."}, "[2]": {"settings": "known side effect; cited from earlier work"}, "[3]": {"tested_on": "patient with functional dyspepsia (stomach)", "experiment": "Barostat test in human", "assay_type": "in vivo", "method": "A patient with functional dyspepsia, based on Rome II standard, was fasted overnight (for not shorter than 12 hours). Oral administration of 300 mg of a compound a, hydrochloride, and placebo has been conducted by a responsive doctor of clinical trial. Thirty minutes later, a polyvinyl adhesive plastic bag with dual ducts (1100 mL, maximal diameter: 17 cm, from Meditronic-Synetics Medical Ltd., Enfield, UK) was folded up to a small piece and introduced into stomach through mouth or nose, and the ducts were fixed on chin by an adhesive tape. The location of the bug in fundus of stomach was confirmed by radioscopy.\nThe polyvinyl tubing was connected to a computer controlled volume-replacement pressure regulator. This regulator can simultaneously monitor pressure and volume with sampling rate of 8 times per second, and also can load volume ramps and pressurizing steps with various rates. Trial subjects were kept in recumbent position and predetermined volume of air (300 mL) was infused for 2 minutes to expand the bug in stomach, and again the air was evacuated completely. After stabilization for 10 minutes, the trial subjects were allowed to keep relaxed by slightly skewing knees on a bed.\nAfter 30 minutes of adaptation period, minimum invasive gastric dilatation pressure (MDP), that is, the minimum pressure to give not less than 30 mL of the bag inner volume, was measured by increasing inner pressure by 1 mmHg per minute. This pressure (MDP) […] equilibrates intraabdominal pressure. Then, pressure was increased from the MDP stepwisely with isobaric expansions by each 2 mmHg. At each pressure increase step, corresponding inner volume of stomach was recorded, and kept for 2 minutes. At the end of each expansion step, patients were asked to express feeling of stimulation at upper abdomen by scores from 0 to 6 with verbal explanation. The expansion procedure was terminated when inner volume of the bag reached to 1000 mL or the patient complained discomfort or soreness (score: 5 or 6).\nFurther, after 30 minutes of adaptation period, the pressure level was adjusted to the MDP+2 mmHg, and kept for 90 minutes. Thirty minutes later, a mixed liquid diet (200 mL, 300 kcal, protein 13%, carbohydrate 39%, Nutridrink™, Nutricia) was given by oral ingestion, followed by measurement of stomach tension over further 60 minutes.\nAverage inner volume of the balloon for each 2 minutes expansion period was obtained from the recorded value. […]\nTo evaluate stomach tension before and after meal, average volume of the balloon was measured continuously at every 5 minutes. The maximum relaxation value was obtained as difference between average volume before meal and the maximum volume after meal among average volumes measured at every 5 minutes after meal."}}, "note": "Counter-ions that a name gives are not always drawn.", "data": [{"smiles": "COc1cc(N)c(Cl)cc1C(=O)NC1CCN(CCCOc2ccc(F)cc2)CC1OC", "note": "(stereo not drawn) [Cisapride, reference compound]", "values": [{"measurement": "Volume change of Air-bag", "setting": "[1]; 0.3 mg/kg", "result": "3.6 ± 25.0", "unit": "mL"}, {"measurement": "Extension of Q-T interval (adverse effect)", "setting": "[2]", "result": "serious side effect such as extension of Q-T interval"}]}, {"smiles": "COc1cc(O)c(C(=O)Nc2nc(C(=O)NCCN(C(C)C)C(C)C)cs2)cc1OC", "note": "[Compound a, hydrochloride, 2-[N-(4,5-dimethoxy-2-hydroxybenzoyl)amino]-4-[(2-diisopropylaminoethyl)aminocarbonyl]-1,3-thiazole]", "values": [{"measurement": "Volume change of Air-bag", "setting": "[1]; 3 mg/kg", "result": "50.8 ± 16.7", "unit": "mL"}, {"measurement": "Volume change of Air-bag", "setting": "[1]; 3 mg/kg, listed as compound a, hydrochloride", "result": 50.8, "unit": "mL"}, {"measurement": "Expansion effect compared with cisapride", "setting": "[1]; compound a 3 mg/kg i.v. vs cisapride 0.3 mg/kg i.v.", "result": "surpassed that of cisapride"}, {"measurement": "Effect on maximum relaxation value of stomach after meal (in words)", "setting": "[3]; 300 mg, p.o.", "result": "significantly increased"}, {"measurement": "Change in max. relaxation volume", "setting": "[3]; 300 mg, p.o., N=17, after meal", "result": "24.3 ± 172.3", "unit": "mL"}, {"measurement": "Max. relaxation volume after treatment", "setting": "[3]; 300 mg, p.o., N=17, after meal", "result": 313.4, "unit": "mL"}, {"measurement": "Max. relaxation volume before treatment", "setting": "[3]; baseline of the 300 mg p.o. group, N=17, after meal", "result": 295.5, "unit": "mL"}]}, {"smiles": "COc1cc(Cl)c(C(=O)Nc2nc(C(=O)NCCN(C(C)C)C(C)C)cs2)cc1OC", "note": "[Compound b, Maleate, 2-[N-(2-chloro-4,5-dimethoxybenzoyl)-amino]-4-[(2-diisopropylaminoethyl)aminocarbonyl]-1,3-thiazole]", "values": [{"measurement": "Volume increase of air-bag, ΔmL", "setting": "[1]; 1 mg/kg i.v.", "result": 29.7, "unit": "mL"}, {"measurement": "Activity of alleviating impaired gastric accommodation (in words)", "setting": "[1]", "result": "excellent activity of alleviating impaired gastric accommodation"}]}, {"smiles": "COc1ccc(C(=O)Nc2nc(C(=O)NCCN(C(C)C)C(C)C)cs2)cc1OC", "note": "[Compound c, hydrochloride, 2-[N-(4,5-dimethoxy-benzoyl)amino]-4-[(2-diisopropylaminoethyl)amino-carbonyl]-1,3-thiazole]", "values": [{"measurement": "Volume increase of air-bag, ΔmL", "setting": "[1]; 1 mg/kg i.v.", "result": 58.2, "unit": "mL"}, {"measurement": "Activity of alleviating impaired gastric accommodation (in words)", "setting": "[1]", "result": "excellent activity of alleviating impaired gastric accommodation"}]}, {"smiles": "COc1cc(O)c(C(=O)Nc2cc(C(=O)NCCN(C(C)C)C(C)C)co2)cc1OC.O=C(O)/C=C\\C(=O)O", "note": "[Compound d, Maleate, 2-[N-(4,5-dimethoxy-2-hydroxybenzoyl)amino]-4-[(2-diisopropyl-aminoethyl)aminocarbonyl]furan]", "values": [{"measurement": "Volume increase of air-bag, ΔmL", "setting": "[1]; 3 mg/kg i.v.", "result": 11.4, "unit": "mL"}, {"measurement": "Activity of alleviating impaired gastric accommodation (in words)", "setting": "[1]", "result": "excellent activity of alleviating impaired gastric accommodation"}]}]}
